Source: patent publication US9675539B2, “Cosmetic and pharmaceutical compositions and methods using 2-decarboxy-2-phosphinico derivatives” (Duke University, priority 2000, dated 2017)

Biological target: hFP receptor (Homo sapiens (Human), UniProt P43088)
Assay: Radioligand Binding Assay
Details: competition with 5 nM (3H) PGF2α on hFP membranes from transfected COS-7 cells; read-out: IC50 the PGF
Experimental: IC50 of a prostaglandin can be determined relative to PGF2α using the Radioligand Binding Assay.
In this assay, COS-7 cells are transiently transfected with the hFP recombinant plasmid using LipofectAMINE Reagent. Forty-eight hours later, the transfected cells are washed with Hank's Balanced Salt Solution (HBSS, without CaCl2, MgCl2, MgSO4, or phenol red). The cells are detached with versene, and HBSS is added. The mixture is centrifuged at 200 g for 10 minutes, at 4° C. to pellet the cells. The pellet is resuspended in Phosphate-Buffered Saline-EDTA buffer (PBS; 1 mM EDTA; pH 7.4; 4° C.). […] The mixture is centrifuged at 1000 g for 10 minutes at 4° C. The supernatant is centrifuged at 100,000 g for 60 minutes at 4° C. The pellet is resuspended to 1 mg protein/mL TME buffer (50 mM Tris; 10 mM MgCl2; 0.1 mM EDTA; pH 6.0; 4° C.) based on protein levels measured using the Pierce BCA Protein Assay kit. […] The membrane preparations are then stored at −80° C., until thawed for assay use.
The receptor competition binding assays are developed in a 96 well format. Each well contains 100 g of hFP membrane, 5 nM (3 H) PGF2α, and the various competing compounds in a total volume of 200 L. The plates are incubated at 23° C. for 1 hour. […] The plates are read on a Packard TOPCOUNT® Microplate Scintillation Counter (also available from Packard Instrument Co., Inc.)

Chain of hFP receptor (P43088 whole entry): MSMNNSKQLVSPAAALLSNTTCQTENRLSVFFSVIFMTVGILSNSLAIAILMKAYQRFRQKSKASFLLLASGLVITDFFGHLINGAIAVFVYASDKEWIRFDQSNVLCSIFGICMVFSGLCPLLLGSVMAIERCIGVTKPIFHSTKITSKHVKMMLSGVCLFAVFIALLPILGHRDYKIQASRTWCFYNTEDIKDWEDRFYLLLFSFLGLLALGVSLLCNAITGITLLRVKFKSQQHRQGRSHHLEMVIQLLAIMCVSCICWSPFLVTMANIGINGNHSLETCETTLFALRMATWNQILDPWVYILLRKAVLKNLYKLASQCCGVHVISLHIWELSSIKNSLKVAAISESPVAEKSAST

CCCCCC(O)/C=C/[C@@H]1[C@@H](C/C=C\CCC[PH](=O)O)[C@@H](O)C[C@H]1O (stereo partly shown) [Example 1-2]
IC50: 114 nM
